This note sets out measurements from patent publication US12485169B2, “Compounds” (GREY WOLF THERAPEUTICS LIMITED, priority 2018, dated 2025).

Some results are limits rather than exact numbers.

For the test, the target named is T1, Purified ERAP1 (37-941)-10His (ERAP1) (Homo sapiens, UniProt Q9NZ08).
T1 construct: Purified ERAP1 (37-941)-10His (ERAP1)
T1 sequence (Q9NZ08 37-941): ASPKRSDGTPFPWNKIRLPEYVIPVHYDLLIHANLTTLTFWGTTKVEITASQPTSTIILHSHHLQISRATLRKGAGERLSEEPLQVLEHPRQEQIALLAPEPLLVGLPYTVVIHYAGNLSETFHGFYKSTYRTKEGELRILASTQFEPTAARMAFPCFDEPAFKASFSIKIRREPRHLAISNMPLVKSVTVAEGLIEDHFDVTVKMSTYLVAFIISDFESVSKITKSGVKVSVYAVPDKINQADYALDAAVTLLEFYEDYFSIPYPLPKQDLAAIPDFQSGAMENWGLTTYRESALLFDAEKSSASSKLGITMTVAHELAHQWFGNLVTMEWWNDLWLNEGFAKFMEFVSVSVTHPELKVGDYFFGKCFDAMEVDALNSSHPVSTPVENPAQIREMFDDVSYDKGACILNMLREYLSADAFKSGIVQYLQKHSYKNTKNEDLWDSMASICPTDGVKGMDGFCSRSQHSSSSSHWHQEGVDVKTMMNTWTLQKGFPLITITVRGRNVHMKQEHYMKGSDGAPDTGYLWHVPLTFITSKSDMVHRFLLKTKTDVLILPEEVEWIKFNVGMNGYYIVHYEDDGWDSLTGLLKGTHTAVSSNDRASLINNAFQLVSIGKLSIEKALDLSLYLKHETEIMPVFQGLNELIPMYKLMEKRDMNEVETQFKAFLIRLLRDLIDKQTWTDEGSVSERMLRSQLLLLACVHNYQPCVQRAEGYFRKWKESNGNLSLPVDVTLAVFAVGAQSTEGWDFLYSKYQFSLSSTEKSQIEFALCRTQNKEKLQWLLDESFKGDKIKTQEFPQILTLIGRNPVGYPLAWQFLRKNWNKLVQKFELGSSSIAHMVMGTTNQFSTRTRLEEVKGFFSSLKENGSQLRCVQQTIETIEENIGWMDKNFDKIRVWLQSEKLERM
The experiment in a line: ERAP1 mediated hydrolysis of an amide substrate (10-mer inhibition assay), biochemical system. To be noted: 10-mer substrate, 23° C., 1 h, excitation 279 nm / emission 355 nm; read-out: IC50 vs Decapeptide WRVYEKC(Dnp)ALK-acid (where Dnp is Dinitrophenyl maleimide) (10-mer).
Take `CCc1ccc(C(=O)O)cc1S(=O)(=O)Nc1c(N2CCCCC2)ccc(-c2cnoc2C)c1F` [Example 305, 4-ethyl-3-(N-(2-fluoro-3-(5-methylisoxazol-4-yl)-6-(piperidin-1-yl)phenyl)sulfamoyl)benzoic acid]: the IC50 – broadly, the midpoint of a concentration-inhibition curve – is less than 500 nM.

As for `CCc1ccc(C(=O)O)cc1S(=O)(=O)Nc1cc(-c2cnoc2C)c(Cl)cc1N1CCCCC1` [Example 306, 4-ethyl-3-(N-(4-Chloro-5-(5-methylisoxazol-4-yl)-2-(piperidin-1-yl)phenyl)sulfamoyl)benzoic acid], the IC50 is less than 500 nM.

For the molecule `CCc1ccc(C(=O)O)cc1S(=O)(=O)Nc1cc(S(C)(=O)=O)ccc1N1CCC(F)(F)CC1` [Example 308, 3-(N-(2-(4,4-difluoropiperidin-1-yl)-5-(methylsulfonyl)phenyl)sulfamoyl)-4-ethylbenzoic acid], the IC50 is less than 500 nM.

On to `CS(=O)(=O)c1ccc(N2CCC(F)(F)CC2)c(NS(=O)(=O)c2cc(C(=O)O)ccc2C2CC2)c1` [Example 309, 4-cyclopropyl-3-(N-(2-(4,4-difluoropiperidin-1-yl)-5-(methylsulfonyl)phenyl)sulfamoyl)benzoic acid], for which the IC50 is less than 500 nM.

Consider `N#Cc1ccc(N2CCC(F)(F)CC2)c(NS(=O)(=O)c2cc(C(=O)O)ccc2C2CC2)c1` [Example 310, 3-(N-(5-cyano-2-(4,4-difluoropiperidin-1-yl)phenyl)sulfamoyl)-4-cyclopropylbenzoic acid], for which the IC50 is less than 500 nM.

Take `CCc1ccc(C(=O)O)cc1S(=O)(=O)Nc1cc(C#N)ccc1N1CCC[C@@H](F)C1` [Example 311, I-3-(N-(5-cyano-2-(3-fluoropiperidin-1-yl)phenyl)sulfamoyl)-4-ethylbenzoic]: the 50% inhibitory concentration (IC50) was less than 500 nM.

For `N#Cc1ccc(N2CCC[C@@H](F)C2)c(NS(=O)(=O)c2cc(C(=O)O)ccc2C2CC2)c1` [Example 312, I-3-(N-(5-cyano-2-(3-fluoropiperidin-1-yl)phenyl)sulfamoyl)-4-cyclopropylbenzoic acid], the IC50 was less than 500 nM.

For `CCc1ccc(C(=O)O)cc1S(=O)(=O)Nc1cc(S(C)(=O)=O)ccc1N1CCCC(F)(F)C1` [Example 313, 3-(N-(2-(3,3-difluoropiperidin-1-yl)-5-(methylsulfonyl)phenyl)sulfamoyl)-4-ethylbenzoic acid], the IC50 was less than 500 nM.

For `O=C(O)c1ccc(C2CC2)c(S(=O)(=O)Nc2cc(C(F)(F)F)ccc2N2CCC[C@@H](O)C2)c1` [Example 314, I-4-cyclopropyl-3-(N-(2-(3-hydroxypiperidin-1-yl)-5-(trifluoromethyl)phenyl)sulfamoyl)benzoic acid], the IC50 is less than 500 nM.

Take `N#CC1CCN(c2ccc(C(F)(F)F)cc2NS(=O)(=O)c2cc(C(=O)O)ccc2C2CC2)CC1` [Example 315, 3-(N-(2-(4-cyanopiperidin-1-yl)-5-(trifluoromethyl)phenyl)sulfamoyl)-4-cyclopropylbenzoic acid]: the IC50 was less than 500 nM.

Turning to `N#Cc1ccc(N2CCCC(F)(F)C2)c(NS(=O)(=O)c2cc(C(=O)O)ccc2C2CC2)c1` [Example 316, 3-(N-(5-cyano-2-(3,3-difluoropiperidin-1-yl)phenyl)sulfamoyl)-4-cyclopropylbenzoic acid], the IC50 was less than 500 nM.

For the molecule `CCc1ccc(C(=O)O)cc1S(=O)(=O)Nc1cc(S(C)(=O)=O)ccc1N1CCC(F)CC1` [Example 317, 4-ethyl-3-(N-(2-(4-fluoropiperidin-1-yl)-5-(methylsulfonyl)phenyl)sulfamoyl)benzoic acid], the IC50 is less than 500 nM.

As for `CCc1ccc(C(=O)O)cc1S(=O)(=O)Nc1cc(C#N)ccc1N1CCC(F)CC1` [Example 318, 3-(N-(5-cyano-2-(4-fluoropiperidin-1-yl)phenyl)sulfamoyl)-4-ethylbenzoic acid], the IC50 was less than 500 nM.

On to `CS(=O)(=O)c1ccc(N2CCCC(F)(F)C2)c(NS(=O)(=O)c2cc(C(=O)O)ccc2C2CC2)c1` [Example 319, 4-cyclopropyl-3-(N-(2-(3,3-difluoropiperidin-1-yl)-5-(methylsulfonyl)phenyl)sulfamoyl)benzoic acid], for which the IC50 was less than 500 nM.

On to `CS(=O)(=O)c1ccc(N2CCC(F)CC2)c(NS(=O)(=O)c2cc(C(=O)O)ccc2C2CC2)c1` [Example 320, 4-cyclopropyl-3-(N-(2-(4-fluoropiperidin-1-yl)-5-(methylsulfonyl)phenyl)sulfamoyl)benzoic acid], for which the IC50 was less than 500 nM.

As to `CS(=O)(=O)c1ccc(N2CCC[C@@H](F)C2)c(NS(=O)(=O)c2cc(C(=O)O)ccc2C2CC2)c1` [Example 321, I-4-cyclopropyl-3-(N-(2-(3-fluoropiperidin-1-yl)-5-(methylsulfonyl)phenyl)sulfamoyl)benzoic acid], the IC50 was less than 500 nM.

With `N#Cc1ccc(N2CCC(F)CC2)c(NS(=O)(=O)c2cc(C(=O)O)ccc2C2CC2)c1` [Example 322, 3-(N-(5-cyano-2-(4-fluoropiperidin-1-yl)phenyl)sulfamoyl)-4-cyclopropylbenzoic acid], the IC50 was less than 500 nM.

On to `O=C(O)c1ccc(C2CC2)c(S(=O)(=O)Nc2cc(-n3cnnn3)ccc2N2CCCCC2)c1` [Example 323, 4-cyclopropyl-3-(N-(2-(piperidin-1-yl)-5-(tetrazol-1-yl)phenyl)sulfamoyl)benzoic acid], for which the IC50 is less than 500 nM.

As for `N#Cc1cc(NS(=O)(=O)c2cc(C(=O)O)ccc2C2CC2)c(N2CCCCC2)cc1F` [Example 324, 3-(N-(5-cyano-4-fluoro-2-(piperidin-1-yl)phenyl)sulfamoyl)-4-cyclopropylbenzoic acid], the IC50 was less than 500 nM.

On to `O=C(O)c1ccc(C2CC2)c(S(=O)(=O)Nc2cc(-n3cnnn3)ccc2N2CC(O)C2)c1` [Example 325, 4-cyclopropyl-3-(N-(2-(3-hydroxyazetidin-1-yl)-5-(tetrazol-1-yl)phenyl)sulfamoyl)benzoic acid], for which the IC50 was less than 500 nM.

Take `N#Cc1ccc(N2CCC(C#N)CC2)c(NS(=O)(=O)c2cc(C(=O)O)ccc2C2CC2)c1` [Example 326, 3-(N-(5-cyano-2-(4-cyanopiperidin-1-yl)phenyl)sulfamoyl)-4-cyclopropylbenzoic acid]: the IC50 was less than 500 nM.

In the case of `N#Cc1cc(NS(=O)(=O)c2cc(C(=O)O)ccc2C2CC2)c(N2CCCCC2)cc1Cl` [Example 327, 3-(N-(4-chloro-5-cyano-2-(piperidin-1-yl)phenyl)sulfamoyl)-4-cyclopropylbenzoic acid], the IC50 was less than 500 nM.

As to `C[C@@H]1C[C@H](C)CN(c2ccc(C#N)cc2NS(=O)(=O)c2cc(C(=O)O)ccc2C2CC2)C1` [Example 328, 3-(N-(5-cyano-2-(cis-3,5-dimethylpiperidin-1-yl)phenyl)sulfamoyl)-4-cyclopropylbenzoic acid], the IC50 is less than 500 nM.

As to `NS(=O)(=O)c1ccc(N2CCCCC2)c(NS(=O)(=O)c2cc(C(=O)O)ccc2C2CC2)c1` [Example 329, 4-cyclopropyl-3-(N-(2-(piperidin-1-yl)-5-sulfamoylphenyl)sulfamoyl)benzoic acid], the IC50 is less than 500 nM.

For the molecule `N#Cc1ccc(N2CCCCC2)c(NS(=O)(=O)c2cc(C(=O)O)ccc2C2CCC2)c1` [Example 330, 3-(N-(5-cyano-2-(piperidin-1-yl)phenyl)sulfamoyl)-4-cyclobutylbenzoic acid], the IC50 was less than 500 nM.

Regarding `CS(=O)(=O)c1cc(NS(=O)(=O)c2cc(C(=O)O)ccc2C2CC2)c(N2CCCCC2)cc1F` [Example 331, 4-cyclopropyl-3-(N-(4-fluoro-5-(methylsulfonyl)-2-(piperidin-1-yl)phenyl)sulfamoyl)benzoic acid], the IC50 is less than 500 nM.

On to `CS(=O)(=O)c1cc(NS(=O)(=O)c2cc(C(=O)O)ccc2C2CC2)c(N2CCCCC2)cc1Cl` [Example 332, 3-(N-(4-chloro-5-(methylsulfonyl)-2-(piperidin-1-yl)phenyl)sulfamoyl)-4-cyclopropylbenzoic acid], for which the IC50 is less than 500 nM.

On to `O=C(O)c1ccc(C2CC2)c(S(=O)(=O)Nc2cc(-n3cnnn3)c(F)cc2N2CCCCC2)c1` [Example 333, 4-cyclopropyl-3-(N-(4-fluoro-2-(piperidin-1-yl)-5-(tetrazol-1-yl)phenyl)sulfamoyl)benzoic acid], for which the IC50 is less than 500 nM.

`O=C(O)c1ccc(C2CC2)c(S(=O)(=O)Nc2cc(-n3cnnn3)c(Cl)cc2N2CCCCC2)c1` [Example 334, 3-(N-(4-chloro-2-(piperidin-1-yl)-5-(tetrazol-1-yl)phenyl)sulfamoyl)-4-cyclopropylbenzoic acid]: the 50% inhibitory concentration (IC50) is less than 500 nM.

`[2H]C1([2H])C([2H])([2H])C1([2H])c1ccc(C(=O)O)cc1S(=O)(=O)Nc1cc(C#N)ccc1N1CCCCC1` [Example 335, 3-(N-(5-cyano-2-(piperidin-1-yl)phenyl)sulfamoyl)-4-(cyclopropyl-d5)benzoic acid]: the IC50 was less than 500 nM.

`Cc1cc(C#N)cc(NS(=O)(=O)c2cc(C(=O)O)ccc2C2CC2)c1N1CCCCC1` [Example 336, 3-(N-(5-cyano-3-methyl-2-(piperidin-1-yl)phenyl)sulfamoyl)-4-cyclopropylbenzoic acid]: the IC50 was less than 500 nM.

For the molecule `CC(C)(C)c1ccc(C(=O)O)cc1S(=O)(=O)Nc1cc(C#N)ccc1N1CCCCC1` [Example 337, 4-(tert-butyl)-3-(N-(5-cyano-2-(piperidin-1-yl)phenyl)sulfamoyl)benzoic acid], the IC50 was less than 5000 nM.

As for `C#Cc1ccc(C(=O)O)cc1S(=O)(=O)Nc1cc(C#N)ccc1N1CCCCC1` [Example 338, 3-(N-(5-cyano-2-(piperidin-1-yl)phenyl)sulfamoyl)-4-ethynylbenzoic acid], the IC50 is greater than 5000 nM.
